Consider one molecule from patent US12178907B2, “Binary lipid bilayer-containing vesicles comprising embedded cytotoxic agents and methods of making and using the same” (The USA, as represented by the Secretary, Department of …, priority 2018, dated 2024).

Series [1] can be described thus: 661 nm laser treatment (HPPH photodamage). The class given is physicochemical. The settings on record: five minutes. On the procedure:
661 nm Laser Treatment of Vesicle20-HPPH: Vesicle20-HPPH (containing 50-100 μg lipid & 2.5-5 μg HPPH) were placed in a microcentrifuge tube and irradiated horizontally in a box fitted with a diode laser cube at room temperature. Irradiation was done for five minutes using the 661 nm laser (Coherent Cube Part Number 1130061) at a power output of 90 mW (125 mW/cm^2, as measured by the Thorlabs PM200 Energy Meter with the S121C Photodiode Power Sensor). Free HPPH dispersed in Tween 80 (Tween 80-HPPH) (4) and DPPC:DC8,9PC:DSPEG2000 vesicles (Table 1B) were used as controls to compare the extents of photodamage.
The efficiency of photoactivation by HPPH upon laser exposure depends on its environment and aggregation state. Laser treatment of HPPH results in photodamage and serves as an indication of its activity. Therefore, the photodamage of vesicle-formulated HPPH was compared with Tween 80-HPPH and a formulation comprising DPPC and a lower concentration of DSPE-PEG2000 (see Table 2). The extent of photodamage was tested using Vesicle10-HPPH containing 1:0.05 Lipid:HPPH ratios (Table 2) upon treatment with 661 nm laser for five minutes.

For series [2] the following is noted: cited from earlier work.
Series [3] is described as follows: Low-speed centrifugation to sediment unincorporated HPPH. The settings on record: 6,000 rpm, 20-30 minutes, HBS. In kind it is physicochemical. On the procedure: HPPH-loaded vesicles were placed in microcentrifuge tubes and centrifugations were carried out at 6,000 rpm (˜3000 RCF) for 30 minutes at 20-25° C. using a fixed-angle rotor centrifuge. Supernatants containing the vesicle-incorporated HPPH were collected, and any unincorporated HPPH, which aggregates in aqueous environment, was sedimented in the pellet fraction. A sample of an equivalent amount of free HPPH was suspended in HBS (without the lipids), and mixed by vortexing. The free HPPH aggregated in the buffer, which could be sedimented in the pelleted fraction upon centrifugation at low-speed as described above. This protocol presented a simple procedure to remove unincorporated HPPH from the vesicle-associated HPPH.
Free, unincorporated HPPH aggregates in aqueous buffer due to its insolubility, and can be pelleted upon sedimentation by low-speed centrifugation. Size exclusion chromatography (PD10 columns, GE Scientific) was used to separate unincorporated HPPH from the vesicles; however, in these embodiments, it was observed that sonication of HPPH dispersion in the HBS (in the absence of lipids) generated smaller HPPH aggregates that coeluted (in part) with vesicle-associated HPPH on the PD10 column. […] The HPPH suspended in HBS (in the absence of lipids) remained in suspension prior to centrifugation as determined by absorbance measurements. […]

Usually log P stands for the decadic logarithm of the partition coefficient of the neutral form, usually between octanol and water.

In the case of `CCCCCCOC(C)c1c(C)c2cc3nc(c4c5[nH]c(cc6nc(cc1[nH]2)C(C)=C6CC)c(C)c5C(=O)C4)[C@@H](CCC(=O)O)[C@@H]3C` (stereo partly shown) [HPPH, 2-[1-hexyloxyethyl]-2-devinyl pyropheophorbide-a], the “extent of photodamage (HPPH fluorescence remaining after laser)” value in series [1] is listed as “did not result in a decrease in fluorescence”. Moreover, the “molar extinction ε” value in series [2] (at 665 nm) was 47,500 M^−1 cm^−1. For the same molecule, the “log P” value in series [2] (physiological pH) was 5.6. Also, in series [3], the “HPPH sedimented into the pelleted fraction” value was “nearly complete sedimentation”.
